In article PMC9604311 (International Journal of Molecular Sciences, 2022):
“Also recorded” adds a separate entry of the source. Positions of bridges follow the written chain, without caps; N, C: chain ends. Non-standard residues stand in square brackets, D forms with d. Residues, ends and D or L forms follow the SMILES beside them. No end group written: not given here.

T1: KW-495 (lactam 2-5)
T1 chain: Y[dK]FFDRYYRIK-NH2

T2: KW-496 (lactam 2-5)
T2 chain: Y[dK]FFDGGGRYYRIK-NH2

T3: RP-170 (lactam 2-5)
T3 chain: Y[dK]FFD-NH2

B1: DOP (protein)
chain: MEPAPSAGAELQPPLFANASDAYPSACPSAGANASGPPGARSASSLALAIAITALYSAVCAVGLLGNVLVMFGIVRYTKMKTATNIYIFNLALADALATSTLPFQSAKYLMETWPFGELLCKAVLSIDYYNMFTSIFTLTMMSVDRYIAVCHPVKALDFRTPAKAKLINICIWVLASGVGVPIMVMAVTRPRDGAVVCMLQFPSPSWYWDTVTKICVFLFAFVVPILIITVCYGLMLLRLRSVRLLSGSKEKDRSLRRITRMVLVVVGAFVVCWAPIHIFVIVWTLVDIDRRDPLVVAALHLCIALGYANSSLNPVLYAFLDENFKRCFRQLCRKPCGRPDPSSFSRAREATARERVTACTPSDGPGGGAAA

Columns and labels:
human KOP = biological target: T4, human KOP (Homo sapiens, UniProt P41145); test: cell-based; conditions: for KOP α ± SEM: efficacy (intrinsic activity) relative to dynorphin A; for KOP α ± SEM / KOP pEC50 (CL95%): inactive = inactive up to 1 μM; for KOP pEC50 (CL95%): agonist potency, calcium mobilization
T4 construct: expressed in transfected cells; host or cells: CHO cells
T4 sequence (P41145 whole entry): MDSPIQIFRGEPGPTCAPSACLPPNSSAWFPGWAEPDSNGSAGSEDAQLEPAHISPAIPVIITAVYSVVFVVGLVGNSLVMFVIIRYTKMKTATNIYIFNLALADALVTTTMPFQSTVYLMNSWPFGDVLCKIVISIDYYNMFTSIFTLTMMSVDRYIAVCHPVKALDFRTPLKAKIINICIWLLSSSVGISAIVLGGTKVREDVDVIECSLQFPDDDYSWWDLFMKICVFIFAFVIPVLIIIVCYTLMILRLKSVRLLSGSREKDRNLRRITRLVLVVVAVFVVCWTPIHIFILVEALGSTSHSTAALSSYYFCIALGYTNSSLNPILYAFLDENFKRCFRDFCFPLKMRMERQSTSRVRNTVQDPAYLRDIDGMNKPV

human MOP [1] = biological target: T5, human MOP (Homo sapiens, UniProt P35372); test: cell-based
T5 sequence (P35372 whole entry): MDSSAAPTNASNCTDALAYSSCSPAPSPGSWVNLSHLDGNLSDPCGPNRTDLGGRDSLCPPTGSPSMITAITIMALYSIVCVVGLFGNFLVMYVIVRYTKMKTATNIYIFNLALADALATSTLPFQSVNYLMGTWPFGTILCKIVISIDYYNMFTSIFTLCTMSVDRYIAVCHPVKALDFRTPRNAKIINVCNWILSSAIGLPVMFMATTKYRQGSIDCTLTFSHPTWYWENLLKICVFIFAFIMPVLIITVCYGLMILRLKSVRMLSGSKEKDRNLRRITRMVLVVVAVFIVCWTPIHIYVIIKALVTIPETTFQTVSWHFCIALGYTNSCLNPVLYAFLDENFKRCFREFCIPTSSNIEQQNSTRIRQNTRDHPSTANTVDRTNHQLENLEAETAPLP

[2] = biological target: T6, human nociceptin/orphanin FQ peptide receptor (NOP) (Homo sapiens, UniProt P41146); test: [leucyl-3H]nociceptin displacement binding assay
T6 construct: expressed in transfected cells; host or cells: CHO cells (CHOhNOP; gift from GSK), membrane homogenate
T6 sequence (P41146 whole entry): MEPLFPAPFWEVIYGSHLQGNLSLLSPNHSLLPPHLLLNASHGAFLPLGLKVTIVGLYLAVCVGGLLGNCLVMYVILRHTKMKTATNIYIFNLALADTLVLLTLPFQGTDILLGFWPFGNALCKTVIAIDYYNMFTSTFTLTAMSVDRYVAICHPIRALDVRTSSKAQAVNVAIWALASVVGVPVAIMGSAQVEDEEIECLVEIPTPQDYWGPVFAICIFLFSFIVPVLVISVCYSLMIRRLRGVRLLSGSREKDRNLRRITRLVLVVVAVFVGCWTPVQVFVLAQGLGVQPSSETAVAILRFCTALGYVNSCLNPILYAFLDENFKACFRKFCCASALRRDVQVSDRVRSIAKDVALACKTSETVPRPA
Experimental: Radioactivity was determined after an 8 h extraction period.
(§1) The IC50 values were determined from the logarithmic concentration–displacement curves, and the values of the inhibitory constants (Ki) were calculated according to the equation of Cheng and Prusoff.

human NOP = human NOP (Homo sapiens, UniProt P41146); test: calcium mobilization assay, CHO cells co-expressing NOP and Gαqi5; conditions: for NOP pEC50 (CL95%): agonist potency, calcium mobilization, inactive = inactive up to 1 μM
Sequence of human NOP (P41146 whole entry): as above

human MOP [3] = biological target: T5, human MOP; test: [3H]DAMGO displacement binding assay; design: purchased PerkinElmer; host or cells: CHO cells
Experimental: (§2) Membranes were incubated in 0.5 mL of 50 mM Tris/HCl (pH = 7.4), 0.5% bovine serum albumin (BSA), with a number of peptidase inhibitors (bacitracin, bestatin, captopril) and various concentrations of radioligands for 2 h at 25 °C. Non-specific binding was assessed in the presence of […] naloxone. Assays were incubated at room temperature for […] and reactions were terminated via filtration through Whatman GF/B filters, soaked in 0.5% polyethyleneimine (PEI), using Millipore Sampling Manifold (Billerica, MA, USA). Radioactivity was determined after an 8 h extraction period.
as §1

human DOP [4] = biological target: T7, human DOP (Homo sapiens, UniProt P41143); type: cell-based; design: expressed in transfected cells; host or cells: CHO cells; conditions: inactive = inactive up to 1 μM; for DOP pEC50 (CL95%): agonist potency, calcium mobilization; for DOP α ± SEM: efficacy (intrinsic activity) relative to DPDPE
human DOP [5] = biological target: T7, human DOP; test: [3H]deltorphin-2 displacement binding assay; design: purchased PerkinElmer; host or cells: CHO cells; conditions: for pKi DOP: displacement of [3H]deltorphin-2 from CHOhDOP cell homogenates, mean ± SEM, n = 5
Experimental: as §2, §1

mice [6] = test: mouse hot-plate test (antinociception); conditions: i.t. administration, value with range in parentheses
mice [7] = test: rotarod test (motor coordination); type: in vivo; conditions: 6.2 nmol/animal, i.t.; compared to control group
Experimental: Rotarod apparatus (Ugo Basile, No. 8466, Italy) was used to estimate the probable influence of peptide on motor coordination of animals. In the training period, 3 trials were conducted for 3 consecutive days. Animals that were able to stay on the rotating (16 revolutions/min) bar more than 180 s were chosen for the tests. In the experimental session, each animal was tested on the rotarod, and duration to fall from the rotating bar was noted.

human MOP [8] = biological target: T5, human MOP; conditions: agonist potency, calcium mobilization; inactive = inactive up to 1 μM
KW-495 = biological target: T1, KW-495; test: radioligand competition ([3H]deltorphin-2)
KW-496 = biological target: T2, KW-496; test: radioligand competition ([3H]deltorphin-2)
RP-170 = biological target: T3, RP-170; test: radioligand competition ([3H]deltorphin-2)

| Molecule | KOP α ± SEM (human KOP) | NOP pEC50 (CL95%) (human NOP) | Ki (human MOP [3]) [nM] | DOP pEC50 (CL95%) (human DOP [4]) | DOP α ± SEM (human DOP [4]) | Ki (human DOP [5]) [nM] | other results |
| --- | --- | --- | --- | --- | --- | --- | --- |
| CC[C@H](C)[C@H](NC(=O)[C@H](CCCNC(=N)N)NC(=O)[C@H](Cc1ccc(O)cc1)NC(=O)[C@H](Cc1ccc(O)cc1)NC(=O)[C@H](CCCNC(=N)N)NC(=O)CNC(=O)CNC(=O)CNC(=O)[C@@H]1CC(=O)NCCCC[C@@H](NC(=O)[C@@H](N)Cc2ccc(O)cc2)C(=O)N[C@@H](Cc2ccccc2)C(=O)N[C@@H](Cc2ccccc2)C(=O)N1)C(=O)N[C@@H](CCCCN)C(N)=O [KW-496] (HELM PEPTIDE1{Y.[dK].F.F.D.G.G.G.R.Y.Y.R.I.K.[am]}$PEPTIDE1,PEPTIDE1,2:R3-5:R3$$$V2.0) | 1.03 ± 0.02 | incomplete concentration–response curve; also recorded: Crc incomplete | 4.68 | inactive | inactive | > 1000 | EC50 (human KOP): 1.15 nM; EC50 (human MOP [1]): 4.9 nM; Ki [2]: 44.7 nM; NOP α at 1 μM (Crc incomplete) (human NOP; effect at 1 μM relative to N/OFQ, concentration-response curve incomplete): 0.33 ± 0.10; pKi DOP (human DOP [5]): did not bind to DOP |
| CC[C@H](C)[C@H](NC(=O)[C@H](CCCNC(=N)N)NC(=O)[C@H](Cc1ccc(O)cc1)NC(=O)[C@H](Cc1ccc(O)cc1)NC(=O)[C@H](CCCNC(=N)N)NC(=O)[C@@H]1CC(=O)NCCCC[C@@H](NC(=O)[C@@H](N)Cc2ccc(O)cc2)C(=O)N[C@@H](Cc2ccccc2)C(=O)N[C@@H](Cc2ccccc2)C(=O)N1)C(=O)N[C@@H](CCCCN)C(N)=O [KW-495, Tyr-c[D-Lys-Phe-Phe-Asp]-Arg-Tyr-Tyr-Arg-Ile-Lys-NH2] (HELM PEPTIDE1{Y.[dK].F.F.D.R.Y.Y.R.I.K.[am]}$PEPTIDE1,PEPTIDE1,2:R3-5:R3$$$V2.0; N-terminus assumed) |  |  | 4.47 | inactive | inactive | > 1000 | EC50 (human KOP): 2.82 nM; ED50 (jumping response) (mice [6]): 4.59 (1.17–18.09) nmol; EC50 (human MOP [1]): 8.71 nM; Ki [2]: 2.24 nM; EC50 (human NOP): 75.9 nM; effect on motor coordination (falling latency) (mice [7]): did not cause any significant effect; pKi DOP (human DOP [5]): did not bind to DOP |
| CC(C)C[C@H](NC(=O)[C@H](CCCCN)NC(=O)[C@H](CCCNC(=N)N)NC(=O)[C@H](C)NC(=O)[C@H](CO)NC(=O)[C@H](CCCCN)NC(=O)[C@H](CCCNC(=N)N)NC(=O)[C@H](C)NC(=O)CNC(=O)[C@@H](NC(=O)[C@H](Cc1ccccc1)NC(=O)CNC(=O)CNC(=O)[C@@H](N)Cc1ccccc1)[C@@H](C)O)C(=O)N[C@@H](C)C(=O)N[C@@H](CC(N)=O)C(=O)N[C@@H](CCC(N)=O)C(=O)O [N/OFQ] |  |  |  |  |  |  | MOP pEC50 (CL95%) (human MOP [8]): inactive |
| NC(=O)[C@@H]1CC(=O)NCCCC[C@@H](NC(=O)[C@@H](N)Cc2ccc(O)cc2)C(=O)N[C@@H](Cc2ccccc2)C(=O)N[C@@H](Cc2ccccc2)C(=O)N1 [RP-170, Tyr-c[D-Lys-Phe-Phe-Asp]-NH2, reference compound] (HELM PEPTIDE1{Y.[dK].F.F.D.[am]}$PEPTIDE1,PEPTIDE1,2:R3-5:R3$$$V2.0; N-terminus assumed) | 1.00 ± 0.03 | completely inactive | 0.617 | inactive | inactive | 295 |  |
| CC[C@H](C)[C@H](NC(=O)[C@H](CCCNC(=N)N)NC(=O)[C@H](Cc1ccc(O)cc1)NC(=O)[C@H](Cc1ccc(O)cc1)NC(=O)[C@H](CCCNC(=N)N)NC(C)=O)C(=O)N[C@@H](CCCCN)C(N)=O [Ac-RYYRIK-NH2, Ac-Arg-Tyr-Tyr-Arg-Ile-Lys-NH2] | inactive |  |  | inactive | inactive |  | KOP pEC50 (CL95%) (human KOP): inactive; MOP pEC50 (CL95%) (human MOP [8]): inactive |
| CC1(C)SSC(C)(C)[C@@H](NC(=O)[C@@H](N)Cc2ccc(O)cc2)C(=O)NCC(=O)N[C@@H](Cc2ccccc2)C(=O)N[C@H]1C(=O)O [DPDPE] | inactive | inactive |  |  |  |  | KOP pEC50 (CL95%) (human KOP): inactive |
| CC[C@H](C)[C@H](NC(=O)[C@H](CCCNC(=N)N)NC(=O)[C@H](CCCNC(=N)N)NC(=O)[C@H](CC(C)C)NC(=O)[C@H](Cc1ccccc1)NC(=O)CNC(=O)CNC(=O)[C@@H](N)Cc1ccc(O)cc1)C(=O)N[C@@H](CCCNC(=N)N)C(=O)N1CCC[C@H]1C(=O)N[C@@H](CCCCN)C(=O)N[C@@H](CC(C)C)C(=O)N[C@@H](CCCCN)C(=O)N[C@@H](Cc1c[nH]c2ccccc12)C(=O)N[C@@H](CC(=O)O)C(=O)N[C@@H](CC(N)=O)C(=O)N[C@@H](CCC(N)=O)C(=O)O [dynorphin A, reference compound] |  | inactive |  |  | 1.00 |  |  |
| B1 |  |  |  |  |  |  | Ki (KW-495): > 1000 nM; Ki (KW-496): > 1000 nM; Ki (RP-170): 295 nM |
